Assay results published in patent publication US20240246960A1 (adMare Therapeutics Society, priority 2021, published 2024).
Read-outs that look alike come from different tables or passages of the source.

Columns and labels:
HCT116 spheroids = assay: Spheroid + radiation colony forming cell survival assay (SF), HCT116; format: cell-based; details: 8 Gy
Experimental: (§1) Multicellular tumour spheroids determination of compound inhibition of pDNA-PK induction following radiation. Tumour spheroids were grown to approximately 0.5 mm in diameter and irradiated with 20 Gy in combination with inhibitor test compounds to determine their potency. Inhibitor concentration for 50% reduction in pDNA-PK induction (IC50) was determined via immunohistochemical staining in spheroid cryosections taken 2 hours following radiation. For cell survival endpoint 8 Gy radiation was used and 3 hours following radiation spheroids were dissociated, counted and plated for colony forming endpoint.
Spheroid+radiation colony forming cell survival assay (SF). Radiation 8 Gy. Drug: serial dilution 5 μM down to 10 nM (12 wells×2 repeat). Spheroids: 5-10 spheroids per well ([…]). HCT116. 5% O2 and 5% CO2. 96 well pate format for assay. Protocol: pre incubate 1 hour with drug, irradiate 8 Gy, post incubate 3 hrs with drug, dissociate spheroids and count cells and plate for colony forming assay. Endpoint: wait 4-7 days and count colonies. Analysis: determine EC50 concentration that increase cell kill by 50% over radiation alone.
(§2) Multicellular tumour spheroids were used to determine potency of test compounds in a 3D tissue environment using inhibition of pDNA-PK induction following radiation or cell survival as the endpoint. For the pDNA-PK endpoint HCT116 or FaDU tumour spheroids were grown to approximately 0.5 mm in diameter and irradiated with 20 Gy in combination with inhibitor test compounds to determine their potency. Experiments were carried out in 96 well plates containing 0.7 mls of MEM media containing 10% FBS and 10 mM glucose under 20% O2 & 5% CO2 at 37° C. Following dilution of compounds 1:1000 from DMSO stocks, compounds were serially diluted from 10 μM down to 3.5 nM and 5-10 spheroids added. 96 well plates were constantly stirred to avoid spheroids settling during the course of the experiment. The inhibitor concentration for 50% reduction in pDNA-PK induction (EC50) was determined via immunohistochemical staining in spheroid cryosections taken 2 hours following radiation using anti-pDNA-PK (ser 2056) and fixed immediately in formalin following sectioning. For cell survival endpoint 8 Gy radiation was used and, 3 hours following radiation, spheroids were dissociated, counted and plated for colony forming endpoint. Data presented in the table compound potency as EC50 [μM].

DNA-PK = molecular target: T1, DNA-PK (Homo sapiens, UniProt P78527); assay: DNA-PK Assay for Biochemical Enzymatic Inhibition (ADP Glo Kinase assay); details: Table 1
T1 construct: purchased Invitrogen PR9107A
How it was run: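 Human DNA-PK (25 ng) preincubated 15 min with compounds (ten three-fold dilutions) in HEPES pH 7.5, MgCl2, KCl, calf thymus DNA buffer, then substrate 434.4 μM and ATP 64.4 μM (final) for 60 min at room temperature. ADP-Glo luminescence; percent inhibition fitted by four-parameter regression for IC50.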

[1] = molecular target: T2, pDNA-PK ser2056 induction in FaDU spheroids (Homo sapiens, UniProt P78527); assay: Multicellular tumour spheroid + radiation, pDNA-PK inhibition, FaDU; format: cell-based; details: 20 Gy
T2 construct: host or cells: FaDu
Experimental: as §1
Spheroid+radiation pDNA-PK. Radiation: 20 Gy. Drug: serial dilution 5 or 10 μM down to 3.5 nM (11 wells). Spheroids: 3-6 spheroids per well (300-500 μm diameter). 20% O2 and 5% CO2. 96 well plate format. Endpoint: fluorescent immunostain pDNA-PK ser2056 and image on microscope. Analysis: determine EC50 concentrations that decreases pDNA-PK induction […] after irradiation.
as §2

[2] = Microsomal stability assay, mouse liver microsomes; details: for microsomal CLint at 0.1 uM: male, CD-1, mouse, liver microsomes, pH 7.4, Microsomal Stability Mouse Clint, 0.1 mg/mL microsomes, 0.1 uM compound
[3] = Hepatocyte stability assay, human hepatocytes; format: in vitro ADME; details: for hepatocyte CLint at 1 uM: both sexes, human, cryopreserved hepatocytes, pH 7.3, 0.7 million cells per mL, 1 uM compound
How it was run: (§3)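 Pooled cryopreserved hepatocytes (male CD-1 mouse, or mixed-gender human donors; ≥10 each) at 0.7 million viable cells/mL in Krebs-Henseleit buffer pH 7.3, with 1 uM compound (≤0.01% DMSO). Incubated up to 2 h at 37 °C/5% CO2, quenched with acetonitrile; parent compound followed by HPLC-MS/MS peak area.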

[4] = Microsomal stability assay, human liver microsomes; format: in vitro ADME; details: for microsomal CLint at 0.1 uM: both sexes, human, liver microsomes, pH 7.4, 0.1 mg/mL microsomes, 0.1 uM compound
Experimental: Samples were then mixed and centrifuged. Supernatants were used for HPLC-MS/MS analysis. […] Peak areas corresponding to the test compound were recorded.

[5] = Hepatocyte stability assay, mouse hepatocytes; format: in vitro ADME; details: for hepatocyte CLint at 1 uM: male, CD-1, mouse, cryopreserved hepatocytes, pH 7.3, 0.7 million cells per mL, 1 uM compound
How it was run: as §3

[6] = Example 8, spheroid, read-out: Cell line: HCT116 Colony forming endpoint Surviving Fraction EC50
[7] = Example 9 Study 2, read-out: Spheroid Cell line: HCT116 Colony forming endpoint Surviving Fraction EC50
[8] = Example 8, spheroid, read-out: Cell line: FaDU Immunohistochemical endpoint pDNA-PK inhibition EC50
[9] = Example 9 Study 2, 20% O2, read-out: Spheroid Cell line: FaDU Immunohistochemical endpoint pDNA-PK inhibition EC50

Cc1nc(C(F)(F)F)cn1[C@H]1CC[C@@H](Oc2nc(N3CCOCC3)cc3ncccc23)CC1 [Compound 17i, 4-(5-(((1s,4s)-4-(2-methyl-4-(trifluoromethyl)-1H-imidazol-1-yl)cyclohexyl)oxy)-1,6-naphthyridin-7-yl)morpholine]
EC50 (HCT116 spheroids; [6]): 10 to 500 nM
EC50 (HCT116 spheroids; [7]): 10 to 500 nM
IC50 (DNA-PK): 0.5 to 1 nM
EC50 [1, 8]: 500 to 1000 nM
EC50 [1, 9]: 500 to 1000 nM

CCOCCOc1cnc(N[C@H]2CC[C@@H](Oc3nc(N4CCOCC4)cc4ncc(O)cc34)CC2)nc1 [Compound 19b, 5-(((1s,4s)-4-((5-(2-Ethoxyethoxy)pyrimidin-2-yl)amino)cyclohexyl)oxy)-7-morpholino-1,6-naphthyridin-3-ol]
EC50 (HCT116 spheroids; [6]): 10 to 500 nM
EC50 (HCT116 spheroids; [7]): 10 to 500 nM
IC50 (DNA-PK): 1 to 10 nM
EC50 [1, 8]: 500 to 1000 nM
EC50 [1, 9]: 500 to 1000 nM

COc1cnc(N[C@H]2CC[C@@H](Oc3nc(N4CCOCC4)cc4ncc(O)cc34)CC2)nc1 [Compound 19c, 5-(((1s,4s)-4-((5-Methoxypyrimidin-2-yl)amino)cyclohexyl)oxy)-7-morpholino-1,6-naphthyridin-3-ol]
EC50 (HCT116 spheroids; [6]): 10 to 500 nM
EC50 (HCT116 spheroids; [7]): 10 to 500 nM
IC50 (DNA-PK): < 0.5 nM
EC50 [1, 8]: 500 to 1000 nM
EC50 [1, 9]: 500 to 1000 nM

FC(F)Oc1cnc(N[C@H]2CC[C@@H](Oc3nc(N4CCOCC4)cc4ncccc34)CC2)nc1 [Compound 35, 5-(Difluoromethoxy)-N-((1s,4s)-4-((7-morpholino-1,6-naphthyridin-5-yl)oxy)cyclohexyl)pyrimidin-2-amine]
EC50 (HCT116 spheroids; [6]): 1000 to 10000 nM
EC50 (HCT116 spheroids; [7]): 1000 to 10000 nM
Microsomal Stability (mouse) % rem. 60 min [2]: E (% remaining = 0-25%)
microsomal CLint at 0.1 uM [2]: > 116 µL/min/mg
IC50 (DNA-PK): 1 to 10 nM

O=C(N[C@H]1CC[C@@H](Oc2nc(N3CCOCC3)cc3ncccc23)CC1)c1ccncc1 [Compound 113, N-((1s,4s)-4-((7-morpholino-1,6-naphthyridin-5-yl)oxy)cyclohexyl)isonicotinamide]
Hepatocyte Stability (human) % rem. 120 min [3]: G (% remaining = 50-75%)
hepatocyte CLint at 1 uM [3]: < 8.2 µL/min/1e6 cells
Microsomal Stability (mouse) % rem. 60 min [2]: F (% remaining = 25-50%)
microsomal CLint at 0.1 uM [2]: > 116 µL/min/mg
IC50 (DNA-PK): < 0.5 nM
Microsomal Stability (human) % rem. 60 min [4]: F (% remaining = 25-50%)
microsomal CLint at 0.1 uM [4]: > 116 µL/min/mg
Hepatocyte Stability (mouse) % rem. 120 min [5]: G (% remaining = 50-75%)
hepatocyte CLint at 1 uM [5]: < 8.2 µL/min/1e6 cells

O=C(N[C@H]1CC[C@@H](Oc2nc(N3CCOCC3)cc3ncccc23)CC1)c1ccnnc1 [Compound 121, N-((1s,4s)-4-((7-morpholino-1,6-naphthyridin-5-yl)oxy)cyclohexyl)pyridazine-4-carboxamide]
Hepatocyte Stability (human) % rem. 120 min [3]: G (% remaining = 50-75%)
hepatocyte CLint at 1 uM [3]: < 8.2 µL/min/1e6 cells
Microsomal Stability (mouse) % rem. 60 min [2]: H (% remaining = 75-100%)
microsomal CLint at 0.1 uM [2]: < 116 µL/min/mg
IC50 (DNA-PK): 0.5 to 1 nM
Microsomal Stability (human) % rem. 60 min [4]: G (% remaining = 50-75%)
microsomal CLint at 0.1 uM [4]: < 116 µL/min/mg
Hepatocyte Stability (mouse) % rem. 120 min [5]: G (% remaining = 50-75%)
hepatocyte CLint at 1 uM [5]: < 8.2 µL/min/1e6 cells

O=C(N[C@H]1CC[C@@H](Oc2nc(N3CCOCC3)cc3ncccc23)CC1)c1ccc(C(F)(F)F)o1 [Compound 133, N-((1s,4s)-4-((7-Morpholino-1,6-naphthyridin-5-yl)oxy)cyclohexyl)-5-(trifluoromethyl)furan-2-carboxamide]
EC50 (HCT116 spheroids; [6]): 1000 to 10000 nM
EC50 (HCT116 spheroids; [7]): 1000 to 10000 nM
Microsomal Stability (mouse) % rem. 60 min [2]: E (% remaining = 0-25%)
microsomal CLint at 0.1 uM [2]: > 116 µL/min/mg
IC50 (DNA-PK): 0.5 to 1 nM

O=C(N[C@H]1CC[C@@H](Oc2nc(N3CCOCC3)cc3ncccc23)CC1)c1cc[nH]c1 [Compound 140, N-((1s,4s)-4-((7-morpholino-1,6-naphthyridin-5-yl)oxy)cyclohexyl)-1H-pyrrole-3-carboxamide]
Hepatocyte Stability (human) % rem. 120 min [3]: H (% remaining = 75-100%)
hepatocyte CLint at 1 uM [3]: < 8.2 µL/min/1e6 cells
Microsomal Stability (mouse) % rem. 60 min [2]: G (% remaining = 50-75%)
microsomal CLint at 0.1 uM [2]: < 116 µL/min/mg
IC50 (DNA-PK): < 0.5 nM
Microsomal Stability (human) % rem. 60 min [4]: F (% remaining = 25-50%)
microsomal CLint at 0.1 uM [4]: > 116 µL/min/mg
Hepatocyte Stability (mouse) % rem. 120 min [5]: G (% remaining = 50-75%)
hepatocyte CLint at 1 uM [5]: < 8.2 µL/min/1e6 cells

O=C(N[C@H]1CC[C@@H](Oc2nc(N3CCOCC3)cc3ncccc23)CC1)c1ncco1 [Compound 142, N-((1s,4s)-4-((7-morpholino-1,6-naphthyridin-5-yl)oxy)cyclohexyl)oxazole-2-carboxamide]
Hepatocyte Stability (human) % rem. 120 min [3]: H (% remaining = 75-100%)
hepatocyte CLint at 1 uM [3]: < 8.2 µL/min/1e6 cells
Microsomal Stability (mouse) % rem. 60 min [2]: G (% remaining = 50-75%)
microsomal CLint at 0.1 uM [2]: < 116 µL/min/mg
IC50 (DNA-PK): 0.5 to 1 nM
Microsomal Stability (human) % rem. 60 min [4]: F (% remaining = 25-50%)
microsomal CLint at 0.1 uM [4]: > 116 µL/min/mg
Hepatocyte Stability (mouse) % rem. 120 min [5]: F (% remaining = 25-50%)
hepatocyte CLint at 1 uM [5]: > 8.2 µL/min/1e6 cells

O=C(N[C@H]1CC[C@@H](Oc2nc(N3CCOCC3)cc3ncccc23)CC1)c1c[nH]cn1 [Compound 144, N-((1s,4s)-4-((7-morpholino-1,6-naphthyridin-5-yl)oxy)cyclohexyl)-1H-imidazole-4-carboxamide]
Hepatocyte Stability (human) % rem. 120 min [3]: H (% remaining = 75-100%)
hepatocyte CLint at 1 uM [3]: < 8.2 µL/min/1e6 cells
Microsomal Stability (mouse) % rem. 60 min [2]: G (% remaining = 50-75%)
microsomal CLint at 0.1 uM [2]: < 116 µL/min/mg
IC50 (DNA-PK): 0.5 to 1 nM
Microsomal Stability (human) % rem. 60 min [4]: G (% remaining = 50-75%)
microsomal CLint at 0.1 uM [4]: < 116 µL/min/mg
Hepatocyte Stability (mouse) % rem. 120 min [5]: H (% remaining = 75-100%)
hepatocyte CLint at 1 uM [5]: < 8.2 µL/min/1e6 cells

CS(=O)(=O)Nc1cnc2cc(N3CCOCC3)nc(O[C@H]3CC[C@@H](n4ccnc4)CC3)c2c1 [Compound 161, N-(5-(((1s,4s)-4-(1H-imidazol-1-yl)cyclohexyl)oxy)-7-morpholino-1,6-naphthyridin-3-yl)methanesulfonamide]
Microsomal Stability (mouse) % rem. 60 min [2]: F (% remaining = 25-50%)
microsomal CLint at 0.1 uM [2]: < 116 µL/min/mg
IC50 (DNA-PK): < 0.5 nM
Hepatocyte Stability (mouse) % rem. 120 min [5]: G (% remaining = 50-75%)
hepatocyte CLint at 1 uM [5]: < 8.2 µL/min/1e6 cells
EC50 [1, 8]: 1000 to 10000 nM
EC50 [1, 9]: 1000 to 10000 nM

CS(=O)(=O)Nc1cnc2cc(N3CCOCC3)nc(O[C@H]3CC[C@@H](Nc4ncccn4)CC3)c2c1 [Compound 185, N-(7-morpholino-5-(((1s,4s)-4-(pyrimidin-2-ylamino)cyclohexyl)oxy)-1,6-naphthyridin-3-yl)methanesulfonamide]
Hepatocyte Stability (human) % rem. 120 min [3]: H (% remaining = 75-100%)
hepatocyte CLint at 1 uM [3]: < 8.2 µL/min/1e6 cells
Microsomal Stability (mouse) % rem. 60 min [2]: G (% remaining = 50-75%)
microsomal CLint at 0.1 uM [2]: < 116 µL/min/mg
IC50 (DNA-PK): < 0.5 nM
Microsomal Stability (human) % rem. 60 min [4]: F (% remaining = 25-50%)
microsomal CLint at 0.1 uM [4]: > 116 µL/min/mg
Hepatocyte Stability (mouse) % rem. 120 min [5]: G (% remaining = 50-75%)
hepatocyte CLint at 1 uM [5]: < 8.2 µL/min/1e6 cells
